Measured values published in patent publication US20230174521A1, “NOVEL DIACYLGLYCERIDE O-ACYLTRANSFERASE 2 INHIBITORS” (Merck Sharp & Dohme LLC, priority 2020, published 2023).
pIC50: −log10 of the molar value.

Target: T1, human DGAT2 (hDGAT2) (Homo sapiens, UniProt Q96PD7)
T1 construct: made in house; host or cells: Sf-9 insect cells (baculovirus infection); membrane fraction
T1 sequence (Q96PD7 1-388): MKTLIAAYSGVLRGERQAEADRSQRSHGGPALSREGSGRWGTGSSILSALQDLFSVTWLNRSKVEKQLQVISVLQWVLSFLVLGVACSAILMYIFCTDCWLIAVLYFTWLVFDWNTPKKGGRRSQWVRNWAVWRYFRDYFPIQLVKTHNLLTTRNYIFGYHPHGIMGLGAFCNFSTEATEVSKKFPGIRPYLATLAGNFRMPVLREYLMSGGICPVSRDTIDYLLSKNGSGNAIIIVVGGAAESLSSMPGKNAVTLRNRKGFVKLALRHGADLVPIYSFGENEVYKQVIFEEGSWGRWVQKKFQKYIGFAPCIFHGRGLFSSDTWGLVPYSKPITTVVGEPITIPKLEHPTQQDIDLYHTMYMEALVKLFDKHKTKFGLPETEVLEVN
Experiment: DGAT2 enzymatic activity assay (LC/MS/MS detection of 13C18-triolein, Sf-9 membrane prep)
Assay type: biochemical
Settings: hDGAT2 Sf-9 membrane, 25 μM diolein, 5 μM 13C oleoyl-CoA, rt
Experimental: Sf-9 insect cells were maintained in Grace's insect cell culture medium with 10% heated-inactivated fetal bovine serum, 1% Pluronic F-68 and 0.14 μg/ml Kanamycine sulfate at 27° C. in a shaker incubator. After infection with untagged baculovirus expressing human DGAT2 (hDGAT2) at multiplicity of infection (MOI) 3 for 48 hours, cells were harvested. Cell pellets were suspended in buffer containing 10 mM Tris-HCl pH 7.5, 1 mM EDTA, 250 mM sucrose and Complete Protease Inhibitor Cocktail (Sigma Aldrich), and sonicated on ice. Cell debris were removed by centrifugation at 2000×g for 15 minutes. Membrane fractions were isolated by ultracentrifugation (100,000×g), resuspended in the same buffer, and frozen (−80° C.) for later use. The protein concentration was determined with the Pierce™ BCA Protein Assay Kit (Thermo Fisher Scientific). Expression of protein levels was analyzed by immunoblotting with rabbit anti-DGAT2 antibody (Abcam, ab102831) and donkey anti-rabbit IgG H&L Alexa Fluor® 647 (Abcam, ab150075) followed by detection using Typhoon FLA9000 (GE Healthcare).
LC/MS/MS analyses were performed using Thermal Fisher's LX4-TSQ Vantage system. This system consists of an Agilent binary high-performance liquid chromatography (HPLC) pumps and a TSQ Vantage triple quadrupole MS/MS instrument. For each sample, 2 μL samples from the top organic layer of in-plate liquid-liquid extraction were injected onto a Thermo Betabasic C4 column (2.1 mm×20 mm, 5 μm particle size). The samples were then eluted using the following conditions; mobile phase: Isopropanol: acetonitrile/10 mM ammonium formate=50/35/15 (v/v/v), flow rate: 0.8 mL/min, temperature: 25° C. Data was acquired in positive mode using a heated electrospray ionization (HESI) interface. The operational parameters for the TSQ Vantage MS/MS instrument were a spray voltage of 3000 V, capillary temperature of 280° C., vaporizer temperature 400° C., sheath gas 45 arbitrary unit, Aux gas 10 arbitrary units, S-lens 165 and collision gas 1.0 mTorr. […] (SRM) chromatograms of ^13C18-triolein (Q1: 920.8>Q3:621.3) and internal standard ^13C21-triolein (Q1: 923.8>Q3:617.3) were collected for 33 sec. The peak area was integrated by Xcalibur Quan software. The ratio between the ^13C18triolein generated in the reaction and spiked in internal standard ^13C21-triolein was used to generate percentage inhibition and IC50 values. Compound percentage inhibition was calculated by the following formula: Inhibition %=1−[(compound response−low control)/(high control−low control)]×100%. Potent compounds were titrated and IC50 were calculated by 4 parameter sigmoidal curve fitting formula.
DGAT2 activity was determined by measuring the amount of enzymatic product ^13C18-triolein (^13C-1,2,3-Tri(cis-9-octadecenoyl)glycerol) using the membrane prep mentioned above. The assay was carried out in ABgene 384-well assay plates in a final volume of 25 μL at rt. The assay mixture contained the following: assay buffer (100 mM Tris.Cl, pH 7.0, 20 mM MgCl2, 5% ethanol), 25 μM of diolein, 5 μM of ^13C oleoyl-CoA and 8 ng/μL of DGAT2 membrane.

Compound	pIC50
CC1(NC(=O)c2ccc3c(c2)c(C(O)C2CC2)nn3-c2cccc(OC(F)F)c2)CS(=O)(=O)C1 (single isomer, unassigned) [Example 29b, 3-[cyclopropyl(hydroxy)methyl] - 1-[3-(difluoromethoxy)phenyl]-N-(3-methyl-1,1-dioxo-thietan-3-yl)indazole-5-carboxamide]	6.69
CC(C)(CN1CCOCC1)NC(=O)c1ccc2c(c1)c(-c1ccccc1Cl)cn2-c1ccc(F)cc1 [Example 9, 3-(2-chlorophenyl)-1-(4-fluorophenyl)-N-(2-methyl-l-morpholinopropan-2-yl)-1H-indole-5-carboxamide]	4.91
CC1(NC(=O)c2ccc3c(c2)c(C(O)C(F)(F)F)nn3-c2cccc(OC(F)F)c2)CS(=O)(=O)C1 (single isomer, unassigned) [Example 30b, 1-[3-(difluoromethoxy)phenyl]-N-(3-methyl-1,1-dioxo-thietan-3-yl)-3-(2,2,2-trifluoro-1-hydroxy-ethyl)indazole-5-carboxamide]	6.95
CC1(NC(=O)c2ccc3c(c2)c(C2(O)CCOCC2)nn3-c2cccc(OC(F)F)c2)CS(=O)(=O)C1 [Example 22]	7.29
C[C@]1(NC(=O)c2ccc3c(c2)c(-c2ccc(F)cc2)cn3-c2ccccc2Cl)CCS(=O)(=O)C1 [Example 5, (S)-1-(2-chlorophenyl)-3-(4-fluorophenyl)-N-(3-methyl-1,1-dioxidotetrahydrothiophen-3-yl)-1H-indole-5-carboxamide]	6.94
C[C@]1(NC(=O)c2ccc3c(c2)c(-c2ccc(F)cc2)cn3-c2ccc(F)cc2)CCS(=O)(=O)C1 [Example 7, (S)-1,3-bis(4-fluorophenyl)-N-(3-methyl-1,1-dioxidotetrahydrothiophen-3-yl)-1H-indole-5-carboxamide]	6.24
C[C@]1(NC(=O)c2ccc3c(c2)c(S(C)(=O)=O)nn3-c2cccc(OC(F)F)c2)CCS(=O)(=O)C1 [Example 53, (S)-1-(3-(difluoromethoxy)phenyl)-N-(3-methyl-1,1-dioxidotetrahydrothiophen-3-yl)-3-(methylsulfonyl)-1H-indazole-5-carboxamide]	6.27
CC1(NC(=O)c2ccc3c(c2)c(C(O)C2CC2)nn3-c2cccc(OC(F)F)c2)CS(=O)(=O)C1 (single isomer, unassigned) [Example 29a, 3-[cyclopropyl(hydroxy)methyl] - 1-[3-(difluoromethoxy)phenyl]-N-(3-methyl-1,1-dioxo-thietan-3-yl)indazole-5-carboxamide]	8.29
Cn1ccc(-c2nn(-c3cccc(OC(F)F)c3)c3ccc(C(=O)NC4(C)CS(=O)(=O)C4)cc23)n1 [Example 2, 1-(3-(difluoromethoxy)phenyl)-N-(3-methyl-1,1-dioxo-thietan-3-yl)-3-(l-methylpyrazol-3-yl)indazole-5-carboxamide]	7.74
CC1(NC(=O)c2ccc3c(c2)c(C(O)C(F)(F)F)nn3-c2cccc(OC(F)F)c2)CS(=O)(=O)C1 (single isomer, unassigned) [Example 30a, 1-[3-(difluoromethoxy)phenyl]-N-(3-methyl-1,1-dioxo-thietan-3-yl)-3-(2,2,2-trifluoro-1-hydroxy-ethyl)indazole-5-carboxamide]	7.08
CC1(NC(=O)c2ccc3c(c2)c(C(O)C(F)(F)F)nn3-c2cccc(OC(F)F)c2)CS(=O)(=O)C1 (racemic) [Example 30, 1-(3-(difluoromethoxy)phenyl)-N-(3-methyl-1,1-dioxidothietan-3-yl)-3-(2,2,2-trifluoro-1-hydroxyethyl)-1H-indazole-5-carboxamide]	7.33
CC1(NC(=O)c2ccc3c(c2)c(NS(C)(=O)=O)nn3-c2cccc(OC(F)F)c2)CS(=O)(=O)C1 [Example 51]	< 5.00

Further lines, results first:

pIC50	Compound
< 5.00	CC1(NC(=O)c2ccc3c(c2)c(O)nn3-c2cccc(OC(F)F)c2)CS(=O)(=O)C1 [Example 56]
7.51	CC1(NC(=O)c2cnc3c(c2)c(C(C)(C)O)nn3-c2cc(OC(F)F)ncc2F)CS(=O)(=O)C1 [Example 46, l-(2-(difluoromethoxy)-5-fluoropyridin-4-yl)-3-(2-hydroxypropan-2-yl)-N-(3-methyl-1,1-dioxidothietan-3-yl)-1H-pyrazolo[3,4-b]pyridine-5-carboxamide]
6.87	Cc1cc2c(cc1C(=O)NC1(C)CS(=O)(=O)C1)c(C(C)C)nn2-c1cccc(OC(F)F)c1 [Example 19]
6.15	Cc1ncc(OC(F)F)cc1-n1nc(CC(C)(C)O)c2cc(C(=O)NC3(C)CS(=O)(=O)C3)cnc21 [Example 25, l-(5-(difluoromethoxy)-2-methylpyridin-3-yl)-3-(2-hydroxy-2-methylpropyl)-N-(3-methyl-1,1-dioxidothietan-3-yl)-1H-pyrazolo[3,4-b]pyridine-5-carboxamide]
7.57	CC(C)(O)c1nn(-c2cccc(OC(F)F)c2)c2ccc(C(=O)N[C@@]3(C)CCS(=O)(=O)C3)cc12 [Example 33, (S)-1-(3-(difluoromethoxy)phenyl)-3-(2-hydroxypropan-2-yl)-N-(3-methyl-1,1-dioxidotetrahydrothiophen-3-yl)-1H-indazole-5-carboxamide]
7.39	CC(C)Nc1nn(-c2cccc(OC(F)F)c2)c2ccc(C(=O)NC3(C)CS(=O)(=O)C3)cc12 [Example 50]
7.23	Cc1cc(C(=O)NC2(C)CS(=O)(=O)C2)cc2c(C(C)(C)O)nn(-c3cccc(OC(F)F)c3)c12 [Example 36, 1-(3-(difluoromethoxy)phenyl)-3-(2-hydroxypropan-2-yl)-7-methyl-N-(3-methyl-1,1-dioxidothietan-3-yl)-1H-indazole-5-carboxamide]
8.49	C[C@]1(NC(=O)c2cnc3c(c2)c(-c2ccc(F)cc2)nn3-c2cccc(OC(F)F)c2)CCS(=O)(=O)C1 [Example 4, (S)-1-(3-(difluoromethoxy)phenyl)-3-(4-fluorophenyl)-N-(3-methyl-l,1-dioxo-thiolan-3-yl)pyrazolo[3,4-b]pyridine-5-carboxamide]
7.11	CC(C)c1nn(-c2cccc(OC(F)F)c2)c2cnc(C(=O)NC3(C)CS(=O)(=O)C3)cc12 [Example 13]
6.97	CC1(NC(=O)c2cnc3c(c2)c(C(C)(C)O)nn3-c2cccc(OC(F)(F)F)c2)CS(=O)(=O)C1 [Example 42, 3-(2-hydroxypropan-2-yl)-N-(3-methyl-1,1-dioxidothietan-3-yl)-1-(3-(trifluoromethoxy)phenyl)-1H-pyrazolo[3,4-b]pyridine-5-carboxamide]
7.85	CC(C)c1nn(-c2cccc(C3CC3)c2)c2ncc(C(=O)NC3(C)CS(=O)(=O)C3)cc12 [Example 16, l-(3-cyclopropylphenyl)-3-isopropyl-N-(3-methyl-1,1-dioxidothietan-3-yl)-1H-pyrazolo[3,4-b]pyridine-5-carboxamide]
7.60	CC1(NC(=O)c2cnc3c(c2)c(C(C)(C)O)nn3-c2cc(OC(F)F)ccc2F)CS(=O)(=O)C1 [Example 41, l-(5-(difluoromethoxy)-2-fluorophenyl)-3-(2-hydroxypropan-2-yl)-N-(3-methyl-1,1-dioxidothietan-3-yl)-1H-pyrazolo[3,4-b]pyridine-5-carboxamide]
7.62	CC1(NC(=O)c2ccc3c(c2)c(C(F)F)nn3-c2cccc(OC(F)F)c2)CS(=O)(=O)C1 [Example 32, 1-(3-(difluoromethoxy)phenyl)-3-(difluoromethyl)-N-(3-methyl-1,1-dioxidothietan-3-yl)-1H-indazole-5-carboxamide]
